Test results reported in US12247045B2, “MAP4K4 inhibitors” (Imperial College Innovations Limited, priority 2018, dated 2025).

How the values were obtained:
MLK1/MAP3K9 = MLK1/MAP3K9 (Homo sapiens, UniProt P80192); assay: Kinase selectivity panel, MLK1/MAP3K9; type: biochemical
From the text: (§1) The data in Table 42 also provides the fold selectivity of the two compounds in favour of MAP4K4 over the tested kinase. The fold selectivity is indicated in parenthesis.

[1] = test system: mice undergoing experimental myocardial infarction; assay: Infarct size in mice undergoing experimental myocardial infarction; type: in vivo; conditions: compared to vehicle control (DMSO)
Procedure: To test if target validation and compound development in hiPSC-CMs might predict success in a whole-animal context, mice undergoing experimental myocardial infarction were treated with Ex-78 or the vehicle control (DMSO) (FIG. 6). The suppression of cardiac muscle cell death achieved roughly a 55% reduction in infarct size as a proportion of the area at ischemic risk compared to control.

GLK/MAP4K3 = target: T1, GLK/MAP4K3 (Homo sapiens, UniProt Q8IVH8); assay: Kinase selectivity panel, GLK/MAP4K3; type: biochemical
T1 sequence (Q8IVH8 1-894): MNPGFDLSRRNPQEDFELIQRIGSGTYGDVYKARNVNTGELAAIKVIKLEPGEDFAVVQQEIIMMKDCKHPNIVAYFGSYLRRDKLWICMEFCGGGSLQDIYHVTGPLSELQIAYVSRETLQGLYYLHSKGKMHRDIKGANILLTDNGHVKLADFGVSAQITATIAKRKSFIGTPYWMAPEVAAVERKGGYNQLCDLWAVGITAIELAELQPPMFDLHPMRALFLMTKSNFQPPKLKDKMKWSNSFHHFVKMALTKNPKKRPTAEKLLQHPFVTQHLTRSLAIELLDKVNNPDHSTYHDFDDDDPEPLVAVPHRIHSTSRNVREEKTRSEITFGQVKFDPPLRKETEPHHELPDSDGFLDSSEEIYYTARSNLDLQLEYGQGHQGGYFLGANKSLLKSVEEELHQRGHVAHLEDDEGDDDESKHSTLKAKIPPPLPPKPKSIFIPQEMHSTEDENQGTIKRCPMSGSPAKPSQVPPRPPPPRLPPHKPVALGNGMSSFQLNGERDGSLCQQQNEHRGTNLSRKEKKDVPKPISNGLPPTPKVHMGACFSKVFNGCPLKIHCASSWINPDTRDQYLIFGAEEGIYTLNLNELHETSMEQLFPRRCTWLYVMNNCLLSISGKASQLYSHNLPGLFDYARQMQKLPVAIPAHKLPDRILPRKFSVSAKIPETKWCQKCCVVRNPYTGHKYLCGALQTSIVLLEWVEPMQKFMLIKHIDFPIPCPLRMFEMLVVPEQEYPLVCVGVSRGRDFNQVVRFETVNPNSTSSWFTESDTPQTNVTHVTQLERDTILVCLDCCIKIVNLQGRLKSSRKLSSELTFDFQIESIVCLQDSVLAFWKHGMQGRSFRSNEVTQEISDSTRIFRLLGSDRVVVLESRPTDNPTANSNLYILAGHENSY
From the text: as §1

Aurora B = Aurora B (Homo sapiens, UniProt Q96GD4); assay: Kinase selectivity panel, Aurora B; type: biochemical; conditions: in favour of MAP4K4
Sequence of Aurora B (Q96GD4 whole entry): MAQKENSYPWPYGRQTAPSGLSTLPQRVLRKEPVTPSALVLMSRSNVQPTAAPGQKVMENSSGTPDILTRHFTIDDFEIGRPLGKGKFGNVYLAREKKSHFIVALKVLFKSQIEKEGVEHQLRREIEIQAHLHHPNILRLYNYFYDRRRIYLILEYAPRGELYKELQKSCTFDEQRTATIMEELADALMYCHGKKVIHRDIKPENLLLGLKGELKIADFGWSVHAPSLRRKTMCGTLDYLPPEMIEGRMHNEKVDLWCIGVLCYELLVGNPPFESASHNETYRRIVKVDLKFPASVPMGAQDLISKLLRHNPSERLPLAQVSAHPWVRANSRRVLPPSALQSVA
From the text: as §1

Sequence of MLK1/MAP3K9 (P80192 whole entry): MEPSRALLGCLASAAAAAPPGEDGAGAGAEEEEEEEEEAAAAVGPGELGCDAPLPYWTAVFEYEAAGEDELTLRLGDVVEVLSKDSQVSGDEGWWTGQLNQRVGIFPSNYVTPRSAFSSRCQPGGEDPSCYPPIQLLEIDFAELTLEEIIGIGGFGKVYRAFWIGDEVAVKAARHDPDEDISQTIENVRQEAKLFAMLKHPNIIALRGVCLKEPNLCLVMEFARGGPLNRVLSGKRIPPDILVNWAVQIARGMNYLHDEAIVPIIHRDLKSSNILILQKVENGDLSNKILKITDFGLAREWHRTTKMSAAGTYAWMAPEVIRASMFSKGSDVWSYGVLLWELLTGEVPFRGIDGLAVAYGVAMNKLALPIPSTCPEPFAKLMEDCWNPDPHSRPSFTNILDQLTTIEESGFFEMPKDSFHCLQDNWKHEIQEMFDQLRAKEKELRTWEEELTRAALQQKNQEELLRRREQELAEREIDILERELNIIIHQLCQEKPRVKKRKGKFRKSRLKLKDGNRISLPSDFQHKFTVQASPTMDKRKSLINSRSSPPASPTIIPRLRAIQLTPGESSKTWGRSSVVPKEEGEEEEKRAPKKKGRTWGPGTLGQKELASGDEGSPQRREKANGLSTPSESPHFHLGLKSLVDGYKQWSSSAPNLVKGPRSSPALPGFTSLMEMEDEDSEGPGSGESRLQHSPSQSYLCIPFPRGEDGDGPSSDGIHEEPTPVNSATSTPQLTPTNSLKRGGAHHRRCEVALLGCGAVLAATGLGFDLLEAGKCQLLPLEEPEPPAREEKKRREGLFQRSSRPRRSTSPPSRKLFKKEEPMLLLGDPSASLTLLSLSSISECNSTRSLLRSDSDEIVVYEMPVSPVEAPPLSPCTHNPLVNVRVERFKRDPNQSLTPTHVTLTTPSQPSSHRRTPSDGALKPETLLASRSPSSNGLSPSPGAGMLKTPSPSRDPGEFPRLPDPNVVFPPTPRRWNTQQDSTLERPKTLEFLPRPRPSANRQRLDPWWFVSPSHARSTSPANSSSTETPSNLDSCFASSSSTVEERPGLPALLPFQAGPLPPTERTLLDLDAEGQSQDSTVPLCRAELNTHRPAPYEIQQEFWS

Structure (SMILES): CC(C)(O)CCOc1ccc(-c2cn(-c3cccnc3)c3nc[nH]c(=O)c23)cc1 [Ex-78, 5-(4-(3-hydroxy-3-methylbutoxy)phenyl)-7-(pyridin-3-yl)-3,7-dihydro-4H-pyrrolo[2,3-d]pyrimidin-4-one]
- fold selectivity MAP4K4 over MLK1/MAP3K9 (MLK1/MAP3K9; in favour of MAP4K4): (4) fold
- IC50 (MLK1/MAP3K9; read-out: pIC50 MLK1/MAP3K9 (converted)): 126 nM
- reduction in infarct size as a proportion of the area at ischemic risk [1]: ~55%
- fold selectivity MAP4K4 over GLK/MAP4K3 (GLK/MAP4K3; in favour of MAP4K4): (50) fold
- IC50 (GLK/MAP4K3; read-out: pIC50 GLK/MAP4K3 (converted)): 1580 nM
- fold selectivity MAP4K4 over Aurora B (Aurora B): (1000) fold
